Laboratory results published in ChEMBL document CHEMBL1153245, “A profile of the in vitro anti-tumor activity of imidazolium-based ionic liquids” (2010).

How the values were obtained:
Type in all cases: functional
HOP-92 = experiment: Anticancer activity against human HOP92 cells assessed cell growth at 10 uM after 48 hrs by sulforhodamine B assay relative to control
ACHN = experiment: Anticancer activity against human ACHN cells assessed cell growth at 10 uM after 48 hrs by sulforhodamine B assay relative to control
A498 = experiment: Anticancer activity against human A498 cells assessed cell growth at 10 uM after 48 hrs by sulforhodamine B assay relative to control
CAKI-1 = experiment: Anticancer activity against human Caki1 cells assessed cell growth at 10 uM after 48 hrs by sulforhodamine B assay relative to control
T47D = experiment: Anticancer activity against human T47D cells assessed cell growth at 10 uM after 48 hrs by sulforhodamine B assay relative to control
UACC-257 = experiment: Anticancer activity against human UACC257 cells assessed cell growth at 10 uM after 48 hrs by sulforhodamine B assay relative to control
HT-29 = experiment: Anticancer activity against human HT-29 cells assessed cell growth at 10 uM after 48 hrs by sulforhodamine B assay relative to control
NCI-H226 = experiment: Anticancer activity against human NCI-H226 cells assessed cell growth at 10 uM after 48 hrs by sulforhodamine B assay relative to control
TK-10 = experiment: Anticancer activity against human TK10 cells assessed cell growth at 10 uM after 48 hrs by sulforhodamine B assay relative to control
PC-3 = experiment: Anticancer activity against human PC3 cells assessed cell growth at 10 uM after 48 hrs by sulforhodamine B assay relative to control
M14 = experiment: Anticancer activity against human M14 cells assessed cell growth at 10 uM after 48 hrs by sulforhodamine B assay relative to control
K562 = experiment: Anticancer activity against human K562 cells assessed cell growth at 10 uM after 48 hrs by sulforhodamine B assay relative to control
COLO 205 = experiment: Anticancer activity against human COLO205 cells assessed cell growth at 10 uM after 48 hrs by sulforhodamine B assay relative to control
MDA-MB-435 = experiment: Anticancer activity against human MDA-MB-435 cells assessed cell growth at 10 uM after 48 hrs by sulforhodamine B assay relative to control
NCI-H522 = experiment: Anticancer activity against human NCI-H522 cells assessed cell growth at 10 uM after 48 hrs by sulforhodamine B assay relative to control
U-251 = experiment: Anticancer activity against human U251 cells assessed cell growth at 10 uM after 48 hrs by sulforhodamine B assay relative to control
DU-145 = experiment: Anticancer activity against human DU145 cells assessed cell growth at 10 uM after 48 hrs by sulforhodamine B assay relative to control
SF-268 = experiment: Anticancer activity against human SF268 cells assessed cell growth at 10 uM after 48 hrs by sulforhodamine B assay relative to control
HOP-62 = experiment: Anticancer activity against human HOP62 cells assessed cell growth at 10 uM after 48 hrs by sulforhodamine B assay relative to control
CCRF-CEM = experiment: Anticancer activity against human CCRF-CEM cells assessed cell growth at 10 uM after 48 hrs by sulforhodamine B assay relative to control
UO-31 = experiment: Anticancer activity against human UO31 cells assessed cell growth at 10 uM after 48 hrs by sulforhodamine B assay relative to control
HCC 2998 = experiment: Anticancer activity against human HCC2998 cells assessed cell growth at 10 uM after 48 hrs by sulforhodamine B assay relative to control
KM12 = experiment: Anticancer activity against human KM12 cells assessed cell growth at 10 uM after 48 hrs by sulforhodamine B assay relative to control
SF-295 = experiment: Anticancer activity against human SF295 cells assessed cell growth at 10 uM after 48 hrs by sulforhodamine B assay relative to control
NCI-H460 = experiment: Anticancer activity against human NCI-H460 cells assessed cell growth at 10 uM after 48 hrs by sulforhodamine B assay relative to control
[1] = Anticancer activity against human RPMI8266 cells assessed cell growth at 10 uM after 48 hrs by sulforhodamine B assay relative to control
SK-MEL-28 = experiment: Anticancer activity against human SK-MEL-28 cells assessed cell growth at 10 uM after 48 hrs by sulforhodamine B assay relative to control
OVCAR-4 = experiment: Anticancer activity against human OVCAR4 cells assessed cell growth at 10 uM after 48 hrs by sulforhodamine B assay relative to control
SK-MEL-2 = experiment: Anticancer activity against human SK-MEL-2 cells assessed cell growth at 10 uM after 48 hrs by sulforhodamine B assay relative to control
HCT-15 = experiment: Anticancer activity against human HCT15 cells assessed cell growth at 10 uM after 48 hrs by sulforhodamine B assay relative to control
IGROV-1 = experiment: Anticancer activity against human IGROV1 cells assessed cell growth at 10 uM after 48 hrs by sulforhodamine B assay relative to control
LOX IMVI = experiment: Anticancer activity against human LOXIMVI cells assessed cell growth at 10 uM after 48 hrs by sulforhodamine B assay relative to control
MDA-MB-468 = experiment: Anticancer activity against human MDA-MB-468 cells assessed cell growth at 10 uM after 48 hrs by sulforhodamine B assay relative to control
HL-60(TB) = experiment: Anticancer activity against human HL-60(TB) cells assessed cell growth at 10 uM after 48 hrs by sulforhodamine B assay relative to control
OVCAR-3 = experiment: Anticancer activity against human OVCAR-3 cells assessed cell growth at 10 uM after 48 hrs by sulforhodamine B assay relative to control
HCT-116 = experiment: Anticancer activity against human HCT116 cells assessed cell growth at 10 uM after 48 hrs by sulforhodamine B assay relative to control
BT-549 = experiment: Anticancer activity against human BT549 cells assessed cell growth at 10 uM after 48 hrs by sulforhodamine B assay relative to control
SR = experiment: Anticancer activity against human SR cells assessed cell growth at 10 uM after 48 hrs by sulforhodamine B assay relative to control
NCI/ADR-RES = experiment: Anticancer activity against human NCI/ADR-RES cells assessed cell growth at 10 uM after 48 hrs by sulforhodamine B assay relative to control
A549 = experiment: Anticancer activity against human A549 cells assessed cell growth at 10 uM after 48 hrs by sulforhodamine B assay relative to control
SNB-19 = experiment: Anticancer activity against human SNB19 cells assessed cell growth at 10 uM after 48 hrs by sulforhodamine B assay relative to control
SK-OV-3 = experiment: Anticancer activity against human SKOV3 cells assessed cell growth at 10 uM after 48 hrs by sulforhodamine B assay relative to control
OVCAR-8 = experiment: Anticancer activity against human OVCAR8 cells assessed cell growth at 10 uM after 48 hrs by sulforhodamine B assay relative to control

Work on `CCCCCC[n+]1ccn(C)c1.FC(F)(F)C(F)(F)[P-](F)(F)(F)(C(F)(F)C(F)(F)F)C(F)(F)C(F)(F)F` yielded an Activity (HOP-92) of 85.4%, an Activity (ACHN) of 54.23% and an Activity (A498) of 75.58%. It also gave an Activity (CAKI-1) of 53.43%, an Activity (T47D) of 55.53% and an Activity (UACC-257) of 34.16%. For the same compound, the Activity (HT-29) was 66.89%, the Activity (NCI-H226) was 57.04% and the Activity (TK-10) was 67.04%. The Activity (PC-3) was 86.43%, the Activity (M14) was 88.81% and the Activity (K562) was 68.14%. The Activity (COLO 205) was 97.72%, the Activity (MDA-MB-435) was 51.22% and the Activity (NCI-H522) was 58.3%. The Activity (U-251) was 78.65%, the Activity (DU-145) was 107.66% and the Activity (SF-268) was 103.36%. For the same compound, the Activity (HOP-62) was 88.12%, the Activity (CCRF-CEM) was 65.92% and the Activity (UO-31) was 71.06%. The Activity (HCC 2998) was 76.85%, the Activity (KM12) was 91.54% and the Activity (SF-295) was 70.02%. It also gave an Activity (NCI-H460) of 51.46%, an Activity [1] of 53.67% and an Activity (SK-MEL-28) of 100.39%. The Activity (OVCAR-4) was 59.66%, the Activity (SK-MEL-2) was 47.53% and the Activity (HCT-15) was 91.62%. It also gave an Activity (IGROV-1) of 78.12%, an Activity (LOX IMVI) of 59.38% and an Activity (MDA-MB-468) of 39.66%. The Activity (HL-60(TB)) was 96.2%, the Activity (OVCAR-3) was 94.84% and the Activity (HCT-116) was 32.03%. It also gave an Activity (BT-549) of 54.78%, an Activity (SR) of 77.17% and an Activity (NCI/ADR-RES) of 54.24%. It also gave an Activity (A549) of 56.87%, an Activity (SNB-19) of 82.22% and an Activity (SK-OV-3) of 85.24%. The Activity (OVCAR-8) was 60.84%.
For `CCCCCCCCCCCCCCCCCC[n+]1ccn(C)c1.[Cl-]`, the Activity (HOP-92) was -51.3%, the Activity (ACHN) was -12.35% and the Activity (A498) was -50.94%. It also gave an Activity (CAKI-1) of -67.34%, an Activity (T47D) of 35.89% and an Activity (UACC-257) of -38%. It also gave an Activity (HT-29) of -42.14%, an Activity (NCI-H226) of -54.04% and an Activity (TK-10) of -70.24%. It also gave an Activity (PC-3) of -54.01%, an Activity (M14) of -33.7% and an Activity (K562) of 28.31%. For the same compound, the Activity (COLO 205) was 1.82%, the Activity (MDA-MB-435) was -56.4% and the Activity (NCI-H522) was -74.88%. The Activity (U-251) was -0.67%, the Activity (DU-145) was -7.74% and the Activity (SF-268) was -45.4%. It also gave an Activity (HOP-62) of -58.64%, an Activity (CCRF-CEM) of 34.04% and an Activity (UO-31) of -61.43%. For the same compound, the Activity (HCC 2998) was -80.71%, the Activity (KM12) was -47.8% and the Activity (SF-295) was -10.43%. For the same compound, the Activity (NCI-H460) was -62.94%, the Activity [1] was 93.78% and the Activity (SK-MEL-28) was -49.38%. For the same compound, the Activity (OVCAR-4) was -19.32%, the Activity (SK-MEL-2) was -61.28% and the Activity (HCT-15) was 3.3%. It also gave an Activity (IGROV-1) of -43.92%, an Activity (LOX IMVI) of 0.13% and an Activity (MDA-MB-468) of -42.33%. For the same compound, the Activity (HL-60(TB)) was 3.76%, the Activity (OVCAR-3) was -48.71% and the Activity (HCT-116) was -18.25%. It also gave an Activity (BT-549) of -55.64%, an Activity (SR) of 4.33% and an Activity (NCI/ADR-RES) of 20.86%. The Activity (A549) was -15.21%, the Activity (SNB-19) was -47.53% and the Activity (SK-OV-3) was 4.83%. It also gave an Activity (OVCAR-8) of -20.19%.
